Among the data in patent US8017612B2, “Piperazine compound and use thereof as a HCV polymerase inhibitor” (priority 2006, dated 2011) are IC50 values, retold here.

Structures can show the parent of a compound that is named as a salt.

In experiment [1] the target is T1, HCV polymerase (NS5B) type 1b (Hepatitis C virus genotype 1b, UniProt P26663).
T1 construct: a region encoding NS5B (J Virol 1991 March, 65(3), 1105-13, 544 amino acids after deletion of 47 amino acids on the C-terminal); 6xHis (C); made in house; host or cells: Escherichia coli
Nature of the experiment: Assay of enzyme (HCV polymerase) inhibitory activity, type 1b enzyme. Format: biochemical, HCV BK strain (type 1b). The settings on record: HCV polymerase inhibitory activity (IC50), 1b, type 1b enzyme 0.5 μg/ml, 25° C., 60 min. In a few lines: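 His-tagged, C-terminally truncated NS5B (BK strain, 1b; 0.5 μg/ml) incubated with compound 60 min at 25 °C on 3′UTR-derived substrate RNA (5 μg/ml), 50 μM ATP/GTP/CTP, 2 μM UTP plus [3H]UTP, pH 7.5. Acid-precipitated RNA counted; IC50 from radioactivity with and without compound.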

Experiment [2] deals with T2, HCV polymerase (NS5B) type 1a (Hepatitis C virus genotype 1a, UniProt P26664).
T2 construct: made in house; host or cells: Escherichia coli (by the 'similar method' of the 1b enzyme)
Nature of the experiment: Assay of enzyme (HCV polymerase) inhibitory activity, type 1a enzyme. The settings on record: HCV polymerase inhibitory activity (IC50), 1a, type 1a enzyme 1.5 μg/ml, 25° C., 60 min. It counts as biochemical, HCV type 1a (cloned from the blood of patients). The method in brief: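 His-tagged NS5B, C-terminal 47 residues deleted, type 1a at 1.5 μg/ml, with 5 μg/ml HCV 3′UTR substrate RNA, 50 μM ATP/GTP/CTP, 2 μM UTP plus [3H]UTP, pH 7.5 Tris, 5 mM MgCl2; 60 min at 25° C. TCA-precipitated RNA counted by scintillation; IC50 from radioactivity with vs. without compound.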

Take `COC(=O)CCCC(=O)N1CCN(S(=O)(=O)c2ccc(C(F)(F)F)cc2)[C@@H](C(=O)NCc2ccc(C(C)C)cc2)C1` [Example 174, 5-[(R)-3-(4-isopropyl-benzylcarbamoyl)-4-(4-trifluoromethyl-benzenesulfonyl)-piperazin-1-yl]-5-oxo-pentanoic acid methyl ester]: the IC50 in experiment [1] and in experiment [2] was 0.1 to 1 µM each time.

With `CC(C)c1ccc(CNC(=O)[C@H]2CN(C(=O)Cc3cccnc3)CCN2S(=O)(=O)c2ccc(C(F)(F)F)cc2)cc1` [Example 175, (R)-4-(2-pyridin-3-yl-acetyl)-1-(4-trifluoromethyl-benzenesulfonyl)-piperazine-2-carboxylic acid 4-isopropyl-benzylamide], the 50% inhibitory concentration (IC50) in experiment [1] and in experiment [2] was 0.1 to 1 µM throughout.

On to `CC(=O)N1CCN(S(=O)(=O)c2ccc(C(F)(F)F)cc2)[C@@H](C(=O)NCc2ccc(C(C)C)cc2)C1` [Example 176, (R)-4-acetyl-1-(4-trifluoromethyl-benzenesulfonyl)-piperazine-2-carboxylic acid 4-isopropyl-benzylamide], for which the IC50 in experiment [1] and in experiment [2] was 0.1 to 1 µM in each case.

For `CCNC(=O)N1CCN(S(=O)(=O)c2ccc(C(F)(F)F)cc2)[C@@H](C(=O)NCc2ccc(C(C)C)cc2)C1` [Example 177, (R)-4-(4-trifluoromethyl-benzenesulfonyl)-piperazine-1,3-dicarboxylic acid 1-ethylamide 3-(4-isopropyl-benzylamide)], the half-inhibitory concentration (IC50) in experiment [1] and in experiment [2] was 0.1 to 1 µM in each case.

Regarding `CC(C)c1ccc(CNC(=O)[C@H]2CN(C(=O)Nc3ccccc3)CCN2S(=O)(=O)c2ccc(C(F)(F)F)cc2)cc1` [Example 178, (R)-4-(4-trifluoromethyl-benzenesulfonyl)-piperazine-1,3-dicarboxylic acid 3-(4-isopropyl-benzylamide) 1-phenylamide], the IC50 in experiment [1] and in experiment [2] was 0.1 to 1 µM throughout.

In the case of `CC(C)c1ccc(CNC(=O)[C@H]2CN(C3=NCCS3)CCN2S(=O)(=O)c2ccc(C(F)(F)F)cc2)cc1` [Example 179, (R)-4-(4,5-dihydro-thiazol-2-yl)-1-(4-trifluoromethyl-benzenesulfonyl)-piperazine-2-carboxylic acid 4-isopropyl-benzylamide], the IC50 in experiment [1] and in experiment [2] was 0.1 to 1 µM in each case.

On to `CC(C)c1ccc(CNC(=O)[C@H]2CN(C(=O)CN3CCOCC3)CCN2S(=O)(=O)c2ccc(C(F)(F)F)cc2)cc1` [Example 180, (R)-4-(2-morpholin-4-yl-acetyl)-1-(4-trifluoromethyl-benzenesulfonyl)-piperazine-2-carboxylic acid 4-isopropyl-benzylamide], for which the half-inhibitory concentration (IC50) in experiment [1] is 0.1 to 1 µM; in experiment [2], over 1 µM.

`CC(=O)N1CCN(S(=O)(=O)c2ccc(C(C)C)cc2)C(C(=O)NCc2ccc(N(C)CCO)cc2)C1` (centres unmarked) [Example 181, 4-acetyl-1-(4-isopropyl-benzenesulfonyl)-piperazine-2-carboxylic acid 4-[(2-hydroxy-ethyl)-methyl-amino]-benzylamide]: the IC50 in experiment [1] and in experiment [2] was over 1 µM each time.

With `CC(=O)N1CCN(S(=O)(=O)c2ccc(C(C)C)cc2)[C@@H](C(=O)NCc2ccc(Br)cc2Cl)C1` [Example 182, (R)-4-acetyl-1-(4-isopropyl-benzenesulfonyl)-piperazine-2-carboxylic acid 4-bromo-2-chloro-benzylamide], the IC50 in experiment [1] and in experiment [2] was 0.1 to 1 µM in each case.

`CC(=O)N1CCN(S(=O)(=O)c2ccc(C(C)C)cc2)[C@@H](C(=O)NCc2ccc(C(C)C)cc2Cl)C1` [Example 183, (R)-4-acetyl-1-(4-isopropyl-benzenesulfonyl)-piperazine-2-carboxylic acid 2-chloro-4-isopropyl-benzylamide]: the half-inhibitory concentration (IC50) in experiment [1] and in experiment [2] was 0.1 to 1 µM in each case.

`Cc1csc(N2CCN(S(=O)(=O)c3ccc(C(F)(F)F)cc3)[C@@H](C(=O)NCc3ccc(C(C)C)cc3)C2)n1` [Example 184, (R)-4-(4-methyl-thiazol-2-yl)-1-(4-trifluoromethyl-benzenesulfonyl)-piperazine-2-carboxylic acid 4-isopropyl-benzylamide]: the 50% inhibitory concentration (IC50) in experiment [1] and in experiment [2] was 0.1 to 1 µM in each case.

As to `CC(=O)NCC(=O)N1CCN(S(=O)(=O)c2ccc(C(F)(F)F)cc2)[C@@H](C(=O)NCc2ccc(C(C)C)cc2)C1` [Example 185, (R)-4-(2-acetylamino-acetyl)-1-(4-trifluoromethyl-benzenesulfonyl)-piperazine-2-carboxylic acid 4-isopropyl-benzylamide], the IC50 in experiment [1] is 0.1 to 1 µM; in experiment [2] it was over 1 µM.

For the molecule `CC(C)c1ccc(CNC(=O)[C@H]2CN(C(=O)CCNC(=O)OC(C)(C)C)CCN2S(=O)(=O)c2ccc(C(F)(F)F)cc2)cc1` [Example 186, {3-[(R)-3-(4-isopropyl-benzylcarbamoyl)-4-(4-trifluoromethyl-benzenesulfonyl)-piperazin-1-yl]-3-oxo-propyl}-carbamic acid tert-butyl ester], the half-inhibitory concentration (IC50) in experiment [1] was 0.1 to 1 µM; in experiment [2], over 1 µM.

With `CC(C)c1ccc(CNC(=O)[C@H]2CN(C(=O)CCC(=O)O)CCN2S(=O)(=O)c2ccc(C(F)(F)F)cc2)cc1` [Example 187, 4-[(R)-3-(4-isopropyl-benzylcarbamoyl)-4-(4-trifluoromethyl-benzenesulfonyl)-piperazin-1-yl]-4-oxo-butyric acid], the IC50 in experiment [1] and in experiment [2] was over 1 µM throughout.

On to `CC(=O)NCCC(=O)N1CCN(S(=O)(=O)c2ccc(C(F)(F)F)cc2)[C@@H](C(=O)NCc2ccc(C(C)C)cc2)C1` [Example 188, (R)-4-(3-acetylamino-propionyl)-1-(4-trifluoromethyl-benzenesulfonyl)-piperazine-2-carboxylic acid 4-isopropyl-benzylamide], for which the IC50 in experiment [1] and in experiment [2] was 0.1 to 1 µM throughout.

Take `CC(C)c1ccc(CNC(=O)[C@H]2CN(C(=O)CCN)CCN2S(=O)(=O)c2ccc(C(F)(F)F)cc2)cc1` [Example 189, (R)-4-(3-amino-propionyl)-1-(4-trifluoromethyl-benzenesulfonyl)-piperazine-2-carboxylic acid 4-isopropyl-benzylamide hydrochloride]: the IC50 in experiment [1] and in experiment [2] was over 1 µM each time.

On to `CC(C)c1ccc(CNC(=O)[C@H]2CN(C(=O)CCCC(=O)O)CCN2S(=O)(=O)c2ccc(C(F)(F)F)cc2)cc1` [Example 190, 5-[(R)-3-(4-isopropyl-benzylcarbamoyl)-4-(4-trifluoromethyl-benzenesulfonyl)-piperazin-1-yl]-5-oxo-pentanoic acid], for which the half-maximal inhibitory concentration (IC50) in experiment [1] was 0.1 to 1 µM; in experiment [2], over 1 µM.

For `CC(C)c1ccc(CNC(=O)[C@H]2CN(c3nc4ccccc4s3)CCN2S(=O)(=O)c2ccc(C(F)(F)F)cc2)cc1` [Example 191, (R)-4-benzothiazol-2-yl-1-(4-trifluoromethyl-benzenesulfonyl)-piperazine-2-carboxylic acid 4-isopropyl-benzylamide], the half-inhibitory concentration (IC50) in experiment [1] and in experiment [2] was 0.1 to 1 µM in each case.

With `CCOc1ccc(S(=O)(=O)N2CCN(C(C)=O)C[C@@H]2C(=O)NCc2ccc(C(C)C)cc2)cc1` [Example 192, (R)-4-acetyl-1-(4-ethoxy-benzenesulfonyl)-piperazine-2-carboxylic acid 4-isopropyl-benzylamide], the IC50 in experiment [1] and in experiment [2] was 0.1 to 1 µM in each case.
